Structures are written as SMILES.

The experiment deals with T1, Glucocorticoid Receptor (Homo sapiens, UniProt P04150).
T1 construct: expressed in transfected cells
T1 sequence (P04150 524-758 limits assumed): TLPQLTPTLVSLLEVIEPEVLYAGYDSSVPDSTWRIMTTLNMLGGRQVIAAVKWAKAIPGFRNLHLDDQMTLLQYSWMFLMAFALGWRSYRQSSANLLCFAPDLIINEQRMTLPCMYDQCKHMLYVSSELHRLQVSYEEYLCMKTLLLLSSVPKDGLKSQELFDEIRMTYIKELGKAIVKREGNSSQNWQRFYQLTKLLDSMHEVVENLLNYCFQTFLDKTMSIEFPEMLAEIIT
In words: Agonistic mode of action on the glucocorticoid receptor (CHO-Gal4/GR luciferase reporter cell line). It counts as cell-based. The settings on record: CHO-Gal4/GR luciferase reporter cells; observed in the agonistic assay or the antagonistic assay (mode not given); read-out: IC50 or EC50 range. The method, boiled down: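 CHO cells stably expressing GAL4 DBD–GR ligand-binding domain fusion with GAL4-UAS firefly luciferase reporter, seeded 24 h, then treated in Opti-MEM with 8 half-log concentrations from 10 μM to 0.003 μM (0.5% DMSO), quadruplicate. Luminescence read on FLIPR after lysis with Triton/luciferin; EC50 calculated.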
As for `COc1c(-c2cc(C(F)(F)F)cc3[nH]ccc23)cc(F)c2c1-n1c(C)nnc1C(C)(C)N2` [Example 473, 6-Fluoro-9-methoxy-1,4,4-trimethyl-8-[6-(trifluoromethyl)-1H-indol-4-yl]-5H-[1,2,4]triazolo[4,3-a]quinoxaline], the IC50 or EC50 (antagonist or agonist mode, not stated per compound) is 100 to 1000 nM.

For the compound `Cc1nnc2n1-c1c(c(F)cc(-c3cccc4c3ccn4S(C)(=O)=O)c1C1CC1)NC2(C)C` [Example 474, 9-Cyclopropyl-6-fluoro-1,4,4-trimethyl-8-(1-methylsulfonyl-1H-indol-4-yl)-5H-[1,2,4]triazolo[4,3-a]quinoxaline], the IC50 or EC50 (antagonist or agonist mode, not stated per compound) was in the range of 100 to 1000 nM.

As for `Cc1cc(-c2cc(F)c3c(c2C)-n2c(C)nnc2C(C)(C)N3)c2ccn(S(C)(=O)=O)c2c1` [Example 475, 6-Fluoro-1,4,4,9-tetramethyl-8-(6-methyl-1-methylsulfonyl-1H-indol-4-yl)-5H-[1,2,4]triazolo[4,3-a]quinoxaline], the IC50 or EC50 (antagonist or agonist mode, not stated per compound) fell in the range of 100 to 1000 nM.

In the case of `COc1c(-c2cc(C)cc3c2ccn3S(C)(=O)=O)cc(F)c2c1-n1c(C)nnc1C(C)(C)N2` [Example 476, 6-Fluoro-9-methoxy-1,4,4-trimethyl-8-(6-methyl-1-methylsulfonyl-1H-indol-4-yl)-5H-[1,2,4]triazolo[4,3-a]quinoxaline], the IC50 or EC50 (antagonist or agonist mode, not stated per compound) was 100 to 1000 nM.

On to `Cc1c(-c2cc(C#N)cc3[nH]ccc23)cc(F)c2c1-n1c(C)nnc1C(C)(C)N2` [Example 477, 4-(6-Fluoro-1,4,4,9-tetramethyl-5H-[1,2,4]triazolo[4,3-a]quinoxalin-8-yl)-1H-indole-6-carbonitrile], for which the IC50 or EC50 (antagonist or agonist mode, not stated per compound) lay within 100 to 1000 nM.

Take `COc1c(-c2cc(F)cc3c(C4CC4)c[nH]c23)cc(F)c2c1-n1c(C)nnc1C(C)(C)N2` [Example 478, 8-(3-Cyclopropyl-5-fluoro-1H-indol-7-yl)-6-fluoro-9-methoxy-1,4,4-trimethyl-5H-[1,2,4]triazolo[4,3-a]quinoxaline]: the IC50 or EC50 (antagonist or agonist mode, not stated per compound) was less than 100 nM.

Regarding `CCS(=O)(=O)n1ccc2c(-c3cc(F)c4c(c3NC)-n3c(C)nnc3C(C)(C)N4)cc(F)cc21` [Example 479, [8-[1-(Ethylsulfonyl)-6-fluoro-1H-indol-4-yl]-6-fluoro-1,4,4-trimethyl-5H-[1,2,4]triazolo[4,3-a]quinoxalin-9-yl]-methyl-amine], the IC50 or EC50 (antagonist or agonist mode, not stated per compound) is 100 to 1000 nM.

Regarding `CNc1c(-c2cc(F)cc3c2ccn3CCO)cc(F)c2c1-n1c(C)nnc1C(C)(C)N2` [Example 480, 2-[6-Fluoro-4-(6-fluoro-1,4,4-trimethyl-9-methylamino-5H-[1,2,4]triazolo[4,3-a]quinoxalin-8-yl)-1H-indol-1-yl]-EtOH], the IC50 or EC50 (antagonist or agonist mode, not stated per compound) lay within 100 to 1000 nM.

Regarding `CNc1c(-c2cccc3c2ccn3C2CC2)cc(F)c2c1-n1c(C)nnc1C(C)(C)N2` [Example 481, 8-(1-cyclopropyl-1H-indol-4-yl)-6-fluoro-N,1,4,4-tetramethyl-4,5-dihydro-[1,2,4]triazolo[4,3-a]quinoxalin-9-amine], the IC50 or EC50 (antagonist or agonist mode, not stated per compound) was in the range of 100 to 1000 nM.

As to `COc1c(-c2cccc3c2ccn3S(C)(=O)=O)cc(Cl)c2c1-n1c(C)nnc1C(C)(C)N2` [Example 482, 6-Chloro-9-methoxy-1,4,4-trimethyl-8-(1-methylsulfonyl-1H-indol-4-yl)-5H-[1,2,4]triazolo[4,3-a]quinoxaline], the IC50 or EC50 (antagonist or agonist mode, not stated per compound) was in the range of 100 to 1000 nM.

For `COc1c(-c2cc(F)cc3c2ccn3S(C)(=O)=O)cc(Cl)c2c1-n1c(C)nnc1C(C)(C)N2` [Example 483, 6-chloro-8-(6-fluoro-1-(methylsulfonyl)-1H-indol-4-yl)-9-methoxy-1,4,4-trimethyl-4,5-dihydro-[1,2,4]triazolo[4,3-a]quinoxaline], the IC50 or EC50 (antagonist or agonist mode, not stated per compound) is less than 100 nM.

Take `Cc1c(-c2cccc3c2ccn3C)cc(F)c2c1-n1c(C)nnc1C(C)(C)N2` [Example 484, 6-Fluoro-1,4,4,9-tetramethyl-8-(1-methyl-1H-indol-4-yl)-5H-[1,2,4]triazolo[4,3-a]quinoxaline]: the IC50 or EC50 (antagonist or agonist mode, not stated per compound) was less than 100 nM.

Consider `COc1c(-c2cccc3c2ccn3C)cc(F)c2c1-n1c(C)nnc1C(C)(C)N2` [Example 485, 6-Fluoro-9-methoxy-1,4,4-trimethyl-8-(1-methyl-1H-indol-4-yl)-5H-[1,2,4]triazolo[4,3-a]quinoxaline], for which the IC50 or EC50 (antagonist or agonist mode, not stated per compound) fell in the range of 100 to 1000 nM.

For the compound `CNc1c(-c2cc(F)cc3c2ccn3S(C)(=O)=O)cc(F)c2c1-n1c(C)nnc1C(C)(C)N2` [Example 486, [6-Fluoro-8-(6-fluoro-1-methylsulfonyl-1H-indol-4-yl)-1,4,4-trimethyl-5H-[1,2,4]triazolo[4,3-a]quinoxalin-9-yl]-methyl-amine], the IC50 or EC50 (antagonist or agonist mode, not stated per compound) lay in the range of 100 to 1000 nM.

For the compound `CNc1c(-c2cc(F)cc3c(C)c[nH]c23)cc(F)c2c1-n1c(C)nnc1C(C)(C)N2` [Example 487, [6-Fluoro-8-(5-fluoro-3-methyl-1H-indol-7-yl)-1,4,4-trimethyl-5H-[1,2,4]triazolo[4,3-a]quinoxalin-9-yl]-methyl-amine], the IC50 or EC50 (antagonist or agonist mode, not stated per compound) is less than 100 nM.

On to `COc1c(-c2cc(F)cc3[nH]ccc23)cc(Cl)c2c1-n1c(C)nnc1C(C)(C)N2` [Example 488, 6-Chloro-8-(6-fluoro-1H-indol-4-yl)-9-methoxy-1,4,4-trimethyl-5H-[1,2,4]triazolo[4,3-a]quinoxaline], for which the IC50 or EC50 (antagonist or agonist mode, not stated per compound) is less than 100 nM.

Turning to `COc1c(-c2ccc(F)c3[nH]ncc23)cc(F)c2c1-n1c(C)nnc1C(C)(C)N2` [Example 489, 6-Fluoro-8-(7-fluoro-1H-indazol-4-yl)-9-methoxy-1,4,4-trimethyl-5H-[1,2,4]triazolo[4,3-a]quinoxaline], the IC50 or EC50 (antagonist or agonist mode, not stated per compound) fell in the range of 100 to 1000 nM.

As to `Cc1c(-c2ccc(F)c3[nH]ccc23)cc(F)c2c1-n1c(C)nnc1C(C)(C)N2` [Example 490, 6-fluoro-8-(7-fluoro-1H-indol-4-yl)-1,4,4,9-tetramethyl-4,5-dihydro-[1,2,4]triazolo[4,3-a]quinoxaline], the IC50 or EC50 (antagonist or agonist mode, not stated per compound) was in the range of 100 to 1000 nM.

Take `Cc1c(-c2cccc3c2ccn3S(=O)(=O)CC2CC2)cc(F)c2c1-n1c(C)nnc1C(C)(C)N2` [Example 491, 8-[1-(Cyclopropyl-methylsulfonyl)-1H-indol-4-yl]-6-fluoro-1,4,4,9-tetramethyl-5H-[1,2,4]triazolo[4,3-a]quinoxaline]: the IC50 or EC50 (antagonist or agonist mode, not stated per compound) is less than 100 nM.

For `COc1c(-c2cc(C(F)(F)F)cc3c2ccn3S(C)(=O)=O)cc(F)c2c1-n1c(C)nnc1C(C)(C)N2` [Example 492, 6-Fluoro-9-methoxy-1,4,4-trimethyl-8-[1-methylsulfonyl-6-(trifluoromethyl)-1H-indol-4-yl]-5H-[1,2,4]triazolo[4,3-a]quinoxaline], the IC50 or EC50 (antagonist or agonist mode, not stated per compound) was in the range of 100 to 1000 nM.

For the compound `COc1c(-c2cc(F)cc3c2cnn3S(C)(=O)=O)cc(Cl)c2c1-n1c(C)nnc1C(C)(C)N2` [Example 493, 6-Chloro-8-(6-fluoro-1-methylsulfonyl-1H-indazol-4-yl)-9-methoxy-1,4,4-trimethyl-5H-[1,2,4]triazolo[4,3-a]quinoxaline], the IC50 or EC50 (antagonist or agonist mode, not stated per compound) lay within 100 to 1000 nM.

Turning to `COc1c(-c2ccc(F)c3[nH]ccc23)cc(F)c2c1-n1c(C)nnc1C(C)(C)N2` [Example 494, 6-Fluoro-8-(7-fluoro-1H-indol-4-yl)-9-methoxy-1,4,4-trimethyl-5H-[1,2,4]triazolo[4,3-a]quinoxaline], the IC50 or EC50 (antagonist or agonist mode, not stated per compound) was in the range of 100 to 1000 nM.

`COc1c(-c2cc(F)cc3[nH]ncc23)cc(F)c2c1-n1c(C)nnc1C(C)(C)N2` [Example 495, 6-Fluoro-8-(6-fluoro-1H-indazol-4-yl)-9-methoxy-1,4,4-trimethyl-5H-[1,2,4]triazolo[4,3-a]quinoxaline]: the IC50 or EC50 (antagonist or agonist mode, not stated per compound) was in the range of 100 to 1000 nM.

In the case of `Cc1c(-c2cc(F)cc3[nH]ncc23)cc(F)c2c1-n1c(C)nnc1C(C)(C)N2` [Example 496, 6-Fluoro-8-(6-fluoro-1H-indazol-4-yl)-1,4,4,9-tetramethyl-5H-[1,2,4]triazolo[4,3-a]quinoxaline], the IC50 or EC50 (antagonist or agonist mode, not stated per compound) is 100 to 1000 nM.

With `Cc1c(-c2cc(F)cc3c2ccn3S(=O)(=O)CC2CC2)cc(F)c2c1-n1c(C)nnc1C(C)(C)N2` [Example 497, 8-[1-(Cyclopropyl-methylsulfonyl)-6-fluoro-1H-indol-4-yl]-6-fluoro-1,4,4,9-tetramethyl-5H-[1,2,4]triazolo[4,3-a]quinoxaline], the IC50 or EC50 (antagonist or agonist mode, not stated per compound) was less than 100 nM.

Regarding `COc1c(-c2cc(F)cc3c2ccn3S(C)(=O)=O)c(F)c(F)c2c1-n1c(C)nnc1C(C)(C)N2` [Example 498, 6,7-Difluoro-8-(6-fluoro-1-methylsulfonyl-1H-indol-4-yl)-9-methoxy-1,4,4-trimethyl-5H-[1,2,4]triazolo[4,3-a]quinoxaline], the IC50 or EC50 (antagonist or agonist mode, not stated per compound) was less than 100 nM.

Regarding `COc1c(-c2cccc3c2ccn3S(C)(=O)=O)c(F)c(F)c2c1-n1c(C)nnc1C(C)(C)N2` [Example 499, 6,7-Difluoro-9-methoxy-1,4,4-trimethyl-8-(1-methylsulfonyl-1H-indol-4-yl)-5H-[1,2,4]triazolo[4,3-a]quinoxaline], the IC50 or EC50 (antagonist or agonist mode, not stated per compound) was 100 to 1000 nM.

The values are drawn from US11981677B2, “Further substituted triazolo quinoxaline derivatives” (Grünenthal GmbH, priority 2018, dated 2024).
